We go through 4 compounds from ChEMBL document CHEMBL6127018, “Molecular design and evaluation of aza-polycyclic carbamoyl pyridones as HIV-1 integrase strand transfer inhibitors” (Bioorg Med Chem Lett, 2024).

The nature of data set [1]: Half-life in rat at 1 mg/kg, iv. The class given is ADME, organism-based. Particulars: in vivo.
Data set [2] in a line: Half-life in cynomolgus monkey at 1 mg/kg, iv. The class given is ADME, organism-based, Macaca fascicularis. The note with it: in vivo.
Data set [3] in a line: Cmax in rat at 5 mg/kg, po or 1 mg/kg, iv. The class given is ADME, organism-based. Particulars: in vivo.
A short description of data set [4]: Cmax in cynomolgus monkey at 5 mg/kg, po or 1 mg/kg, iv. The format is ADME, organism-based, Macaca fascicularis. Particulars: in vivo.
A short description of data set [5]: Oral bioavailability in rat at 5 mg/kg. The format is ADME, organism-based. Particulars: in vivo.
Data set [6] in a line: Oral bioavailability in cynomolgus monkey at 5 mg/kg. The format is ADME, organism-based, Macaca fascicularis. Particulars: in vivo.
Data set [7] in a line: Free fraction in rat serum at 5 mg/kg, po or 1 mg/kg, iv. The format is ADME, organism-based.
Data set [8] in a line: Free fraction in cynomolgus monkey serum at 5 mg/kg, po or 1 mg/kg, iv. The format is ADME, organism-based, Macaca fascicularis.

In the case of `COCCN1CN(C)n2cc(C(=O)NCc3ccc(F)cc3F)c(=O)c([O-])c2C1=O.[Na+]`, the half-life was 14.3 h in data set [1] and 4.8 h in data set [2]. The Cmax was found to be 18000 ng/mL in data set [3] and 1700 ng/mL in data set [4]. The figures for the bioavailability in data set [5] and in data set [6] were 46% and 31%, respectively. Moreover, the fraction unbound in data set [7] is 0.0011; in data set [8] it was 0.0072.

Consider `O=C(NCc1ccc(F)cc1F)c1cn2c(c([O-])c1=O)C(=O)N1CCCN1C2.[Na+]`, for which the half-life in data set [1] is 27.5 h; in data set [2], 3.7 h. Besides, the Cmax was 6390 ng/mL in data set [3] and 345 ng/mL in data set [4]. In addition, the bioavailability in data set [5] is 13%; in data set [6], 6.4%. Further, the fraction unbound in data set [7] was 0.0002; in data set [8] it was 0.0052.

In the case of `COCCN1C(=O)c2c([O-])c(=O)c(C(=O)NCc3ccc(F)cc3F)cn2CN1C.[Na+]`, the half-life is 21.9 h in data set [1] and 3.1 h in data set [2]. Also, the Cmax came to 9330 ng/mL in data set [3] and 385 ng/mL in data set [4]. Besides, the bioavailability amounted to 21% in data set [5] and 6.1% in data set [6]. The free fraction (fraction unbound) was 0.0014 in data set [7] and 0.0118 in data set [8].

As for `C[C@@H]1CCO[C@H]2Cn3cc(C(=O)NCc4ccc(F)cc4F)c(=O)c([O-])c3C(=O)N12.[Na+]` [DOLUTEGRAVIR SODIUM], the half-life is 6.2 h in data set [1] and 6 h in data set [2]. Also, the Cmax in data set [3] stood at 10700 ng/mL; in data set [4], 817 ng/mL. Further, the bioavailability in data set [5] came to 33%. In addition, the fraction unbound was determined as 0.0008 in data set [7] and 0.0058 in data set [8].
